From ChEMBL document CHEMBL5291721, “A preclinical secondary pharmacology resource illuminates target-adverse drug reaction associations of marketed drugs” (Nat Commun, 2023)

What was measured:
[1] = target: T1, Muscarinic acetylcholine receptor M1 (Homo sapiens, UniProt P11229); assay type: functional, cell-based
T1 sequence (P11229 whole entry): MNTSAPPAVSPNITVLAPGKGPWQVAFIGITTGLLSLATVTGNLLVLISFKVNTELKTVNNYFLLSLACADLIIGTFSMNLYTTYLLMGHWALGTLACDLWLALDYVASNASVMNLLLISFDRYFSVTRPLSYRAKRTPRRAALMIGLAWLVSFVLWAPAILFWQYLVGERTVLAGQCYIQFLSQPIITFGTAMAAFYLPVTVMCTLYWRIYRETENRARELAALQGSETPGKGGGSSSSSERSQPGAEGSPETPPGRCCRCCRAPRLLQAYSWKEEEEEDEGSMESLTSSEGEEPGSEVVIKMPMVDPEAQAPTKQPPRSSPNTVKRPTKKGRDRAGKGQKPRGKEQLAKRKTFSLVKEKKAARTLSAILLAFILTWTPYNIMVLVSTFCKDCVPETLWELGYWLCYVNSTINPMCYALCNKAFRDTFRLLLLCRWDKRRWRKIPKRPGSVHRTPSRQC

[2] = target: T1, Muscarinic acetylcholine receptor M1; assay type: functional, cell-based; remark: listed apart in the source
[3] = target: T2, Cholecystokinin receptor type A (Homo sapiens, UniProt P32238)
T2 sequence (P32238 whole entry): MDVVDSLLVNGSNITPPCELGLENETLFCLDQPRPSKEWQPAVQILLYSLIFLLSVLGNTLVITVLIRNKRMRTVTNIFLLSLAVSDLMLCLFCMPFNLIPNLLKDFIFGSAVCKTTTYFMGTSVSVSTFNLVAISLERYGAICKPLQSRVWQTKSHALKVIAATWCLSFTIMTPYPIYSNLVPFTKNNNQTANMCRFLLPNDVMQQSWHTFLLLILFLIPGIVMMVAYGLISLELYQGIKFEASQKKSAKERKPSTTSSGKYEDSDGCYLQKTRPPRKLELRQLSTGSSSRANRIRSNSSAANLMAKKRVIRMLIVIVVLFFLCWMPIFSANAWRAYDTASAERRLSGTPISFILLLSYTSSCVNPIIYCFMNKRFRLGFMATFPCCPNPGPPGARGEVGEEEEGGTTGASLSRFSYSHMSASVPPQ

[4] = target: Gamma-aminobutyric acid receptor subunit alpha-1 (Rattus norvegicus, UniProt P62813)
[5] = target: T3, 5-hydroxytryptamine receptor 3A (Homo sapiens, UniProt P46098); assay type: functional
T3 sequence (P46098 whole entry): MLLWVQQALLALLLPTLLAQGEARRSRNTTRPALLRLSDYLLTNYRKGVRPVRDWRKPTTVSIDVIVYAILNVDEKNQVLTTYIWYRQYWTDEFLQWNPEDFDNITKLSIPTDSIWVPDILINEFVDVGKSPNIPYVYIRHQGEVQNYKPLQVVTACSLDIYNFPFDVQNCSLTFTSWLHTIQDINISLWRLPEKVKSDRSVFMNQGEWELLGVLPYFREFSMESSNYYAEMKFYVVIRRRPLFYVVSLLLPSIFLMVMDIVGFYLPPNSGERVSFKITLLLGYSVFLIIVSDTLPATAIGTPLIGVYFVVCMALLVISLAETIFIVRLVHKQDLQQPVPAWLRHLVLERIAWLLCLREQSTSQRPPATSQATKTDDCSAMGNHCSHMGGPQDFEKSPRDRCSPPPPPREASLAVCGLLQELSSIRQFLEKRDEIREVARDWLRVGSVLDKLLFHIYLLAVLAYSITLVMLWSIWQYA

[6] = target: 5-hydroxytryptamine receptor 2B (Homo sapiens, UniProt P41595); assay type: functional, cell-based
[7] = target: T4, Alpha-2A adrenergic receptor (Homo sapiens, UniProt P08913); assay type: functional, cell-based
T4 sequence (P08913 whole entry): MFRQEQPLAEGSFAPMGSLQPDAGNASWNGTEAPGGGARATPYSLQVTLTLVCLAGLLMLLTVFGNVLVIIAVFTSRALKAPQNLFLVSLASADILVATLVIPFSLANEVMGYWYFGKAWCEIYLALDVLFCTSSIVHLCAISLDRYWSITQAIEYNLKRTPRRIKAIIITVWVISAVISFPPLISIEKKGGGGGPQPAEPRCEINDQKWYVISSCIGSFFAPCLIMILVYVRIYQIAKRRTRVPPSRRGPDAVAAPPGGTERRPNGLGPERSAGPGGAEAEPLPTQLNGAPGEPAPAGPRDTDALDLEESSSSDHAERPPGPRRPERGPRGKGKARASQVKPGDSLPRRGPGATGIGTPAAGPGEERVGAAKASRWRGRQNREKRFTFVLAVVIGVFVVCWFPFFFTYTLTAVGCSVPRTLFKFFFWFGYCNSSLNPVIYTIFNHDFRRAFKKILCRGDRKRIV
Further: assay procedure not described here.

Chain of Gamma-aminobutyric acid receptor subunit alpha-1 (P62813 whole entry): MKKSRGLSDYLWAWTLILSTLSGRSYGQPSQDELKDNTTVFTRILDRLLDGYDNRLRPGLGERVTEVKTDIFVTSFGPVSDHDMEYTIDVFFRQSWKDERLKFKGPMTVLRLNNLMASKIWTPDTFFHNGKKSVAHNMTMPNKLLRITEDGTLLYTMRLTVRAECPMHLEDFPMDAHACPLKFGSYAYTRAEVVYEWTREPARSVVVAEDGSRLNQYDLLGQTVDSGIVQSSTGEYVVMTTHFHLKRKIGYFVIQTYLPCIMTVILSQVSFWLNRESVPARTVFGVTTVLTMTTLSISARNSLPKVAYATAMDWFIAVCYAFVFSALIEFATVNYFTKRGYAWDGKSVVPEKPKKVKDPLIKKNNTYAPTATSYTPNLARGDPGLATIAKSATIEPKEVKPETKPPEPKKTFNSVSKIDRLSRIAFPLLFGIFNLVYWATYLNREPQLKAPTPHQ
Chain of 5-hydroxytryptamine receptor 2B (P41595 whole entry): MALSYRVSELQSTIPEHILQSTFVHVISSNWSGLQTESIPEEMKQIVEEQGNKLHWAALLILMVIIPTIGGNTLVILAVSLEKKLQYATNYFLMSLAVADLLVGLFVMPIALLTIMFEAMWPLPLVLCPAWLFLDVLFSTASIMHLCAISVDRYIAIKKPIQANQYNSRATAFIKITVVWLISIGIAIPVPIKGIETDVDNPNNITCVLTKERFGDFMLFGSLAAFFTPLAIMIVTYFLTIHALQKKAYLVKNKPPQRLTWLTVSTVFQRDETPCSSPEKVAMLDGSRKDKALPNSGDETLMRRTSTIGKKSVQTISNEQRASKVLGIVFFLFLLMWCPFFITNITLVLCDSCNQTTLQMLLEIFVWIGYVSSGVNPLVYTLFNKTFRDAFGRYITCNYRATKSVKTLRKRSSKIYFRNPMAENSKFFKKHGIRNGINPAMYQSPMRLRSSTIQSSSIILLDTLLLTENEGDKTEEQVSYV

Compound `CC(C1=C(CCN(C)C)Cc2ccccc21)c1ccccn1` (stereo unspecified) has an AC50 [1] greater than 30 µM and an AC50 [2] of 7.57 µM.
`C[C@]12CC[C@H](O)CC1=CC[C@@H]1[C@@H]2CC[C@]2(C)C(c3cccnc3)=CC[C@@H]12` [ABIRATERONE] was tested, and the AC50 [3] was greater than 30 µM, the AC50 [4] was greater than 10 µM and the AC50 [5] was greater than 30 µM. The AC50 [6] was greater than 10 µM and the AC50 [7] was greater than 10 µM.
`CC(=O)OCC[N+](C)(C)C` [ACETYLCHOLINE] gave an AC50 [3] greater than 30 µM, an AC50 [4] greater than 10 µM and an AC50 [5] greater than 10 µM. It also gave an AC50 [6] greater than 10 µM and an AC50 [7] greater than 10 µM.
In the case of `O=C1c2c(O)cccc2Cc2cccc(O)c21` [ANTHRALIN], the AC50 [1] is reported as greater than 30 µM and the AC50 [2] is reported as greater than 30 µM.
For `CNC(=O)C[C@@H](N)C(=O)N[C@@H](C(=O)N[C@@H]1C(=O)N2[C@@H]1SC(C)(C)[C@@H]2C(=O)O)c1ccc(O)cc1` [ASPOXICILLIN], the AC50 [1] was greater than 30 µM and the AC50 [2] was greater than 30 µM.
For `CN(C)C(=O)Oc1cc(OC(=O)N(C)C)cc(C(O)CNC(C)(C)C)c1` (stereo unspecified) [BAMBUTEROL], the AC50 [3] was greater than 30 µM.
For `C[C@H]1C[C@H]2[C@@H]3CCC4=CC(=O)C=C[C@]4(C)[C@@]3(Cl)[C@@H](O)C[C@]2(C)[C@@]1(O)C(=O)CO` [BECLOMETHASONE], the AC50 [3] was greater than 30 µM, the AC50 [4] was greater than 10 µM and the AC50 [5] was greater than 30 µM.
Work on `C[C@@H](O)[C@H]1C(=O)N2C(C(=O)[O-])=C(SC3Cn4cnc[n+]4C3)[C@H](C)[C@H]12` (stereo partly specified) [BIAPENEM] yielded an AC50 [1] greater than 30 µM and an AC50 [2] greater than 30 µM.
For `CCCCOc1ccc(CC(=O)NO)cc1` [BUFEXAMAC], the AC50 [1] was greater than 30 µM and the AC50 [2] was greater than 30 µM.
Compound `CO[C@@]1(NC(=O)CSCC#N)C(=O)N2C(C(=O)O)=C(CSc3nnnn3C)CS[C@@H]21` [CEFMETAZOLE] has an AC50 [5] greater than 30 µM, an AC50 [6] greater than 30 µM and an AC50 [7] greater than 30 µM.
For `Nc1ncnc(Nc2ccc(Cl)cc2)n1` [CHLORAZANIL], the AC50 [1] was greater than 30 µM and the AC50 [2] was greater than 30 µM.
With `NS(=O)(=O)c1cc(C2(O)NC(=O)c3ccccc32)ccc1Cl` (stereo unspecified) [CHLORTHALIDONE] the AC50 [3] was greater than 10 µM, the AC50 [4] was greater than 10 µM and the AC50 [5] was greater than 30 µM. The AC50 [6] was greater than 10 µM and the AC50 [7] was greater than 10 µM.
Compound `CC[C@H]1OC(=O)[C@H](C)[C@@H](O[C@H]2C[C@@](C)(OC)[C@@H](O)[C@H](C)O2)[C@H](C)[C@@H](O[C@@H]2O[C@H](C)C[C@H](N(C)C)[C@H]2O)[C@](C)(OC)C[C@@H](C)C(=O)[C@H](C)[C@@H](O)[C@]1(C)O` [CLARITHROMYCIN] has an AC50 [3] greater than 30 µM, an AC50 [6] greater than 30 µM and an AC50 [7] greater than 30 µM.
`C[C@@H]1C[C@H]2[C@@H]3C[C@H](F)C4=CC(=O)C=C[C@]4(C)[C@@]3(Cl)[C@@H](O)C[C@]2(C)[C@H]1C(=O)COC(=O)C(C)(C)C` [CLOCORTOLONE PIVALATE] gave an AC50 [1] greater than 30 µM and an AC50 [2] greater than 30 µM.
Work on `O=P(O)(O)C(Cl)(Cl)P(=O)(O)O` [CLODRONIC ACID] yielded an AC50 [1] greater than 30 µM and an AC50 [2] greater than 30 µM.
For `C[C@@H]1CCC[C@H](C)N1NC(=O)c1ccc(Cl)c(S(N)(=O)=O)c1` [CLOPAMIDE], the AC50 [3] was greater than 30 µM, the AC50 [4] was greater than 30 µM and the AC50 [5] was greater than 30 µM. It also gave an AC50 [6] greater than 30 µM and an AC50 [7] greater than 30 µM.
Compound `COc1ccc2c(c1)[C@]13CCCC[C@@H]1[C@H](C2)N(C)CC3` [DEXTROMETHORPHAN] has an AC50 [3] greater than 30 µM, an AC50 [4] greater than 10 µM and an AC50 [5] greater than 10 µM. The AC50 [6] was greater than 10 µM and the AC50 [7] was greater than 10 µM.
Compound `O=c1oc2ccccc2c(O)c1Cc1c(O)c2ccccc2oc1=O` [DICUMAROL] has an AC50 [3] greater than 10 µM, an AC50 [4] greater than 10 µM and an AC50 [5] greater than 30 µM. For the same compound, the AC50 [6] was greater than 10 µM and the AC50 [7] was greater than 10 µM.
